Source: US10543189B2, “2-acetylnaphtho[2,3-b]furan -4,9-dione for use on treating cancer” (Boston Biomedical, Inc., priority 2013, dated 2020)

Columns and labels:
[1] = tested on: phosphorylated STAT3 (p-STAT3); experiment: Immunohistochemistry of CRC patient tumor tissue for p-STAT3; assay type: in vivo, human; conditions: 100 mg/kg QD (single daily dosage), FIG. 3A
Experimental: (§1) CRC patient's archival tumor tissue samples were analyzed through immunohistochemistry (IHC) using labeled antibodies against phosphorylated STAT3 (p-STAT3). […] For instance, 40% of the patients with high p-STAT3 levels before treatment survived longer than 100 weeks whereas only 10% of those with low or no p-STAT3 levels before treatment survived beyond 100 weeks. This further confirms that the Compound of the Invention downregulates that STAT3 pathway, and that the STAT3 pathway is implicated in colorectal cancers.

colorectal cancer (CRC) = experiment: Survival of treated CRC patients by biomarker status or exposure; assay type: in vivo, human
From the text: FIG. 6A depicts the relationship between Progression Free Survival (PFS) and exposure of a Compound of the Invention in colorectal cancer (CRC) patients. […] FIG. 6B depicts the overall survival (OS) in evaluable CRC patients. OS of evaluable CRC patients treated with a Compound of the Invention (defined as ≥4 weeks of Compound of the Invention, 80% compliance) compared with historical controls [Cetuximab for the treatment of colorectal cancer, 2007, N. Engl. J. Med. 357 2040-2048]. FIG. 6C depicts PFS in evaluable CRC patients. PFS of evaluable CRC patients treated with a Compound of the Invention (defined as ≥4 weeks of Compound of the Invention, 80% compliance) compared historical controls (Open-Label Phase III Trial of Panitumumab Plus Best Supportive Care Compared with Best Supportive Care Alone in Patients with Chemotherapy-Refractory Metastatic Colorectal Cancer, 2007, J. Clin. Onc. 25: 1658-1665].
Understanding the clinical relevance of the cancer stemness markers and identifying their predictive response to the Compound of the Invention is used herein to assist clinical development by selecting patients that will most likely to derive clinical benefit. In some embodiments, the methods provided herein use one or more well-known cancer stemness marker(s), such as, for example, the expression of p-STAT3 and/or other cancer stem cell related proteins such as β-catenin and NANOG. All these proteins can be easily detected using any of a variety of art-recognized techniques. In some embodiments, the cancer sternness marker is detected with immunohistochemistry with antibodies. Using the archival tissue samples collected from the phase I trial with the Compound of the Invention, the patient response to the Compound of the Invention was analyzed based on biomarker status. […] A significant improvement in survival was detected for patients with nuclear β-Catenin localization compared with patients having β-catenin localized to the cell membrane, HR=0.043, p value <0.001. As further evidence, in an in vitro study screening a panel of cancer cells, the cell lines with nuclear β-Catenin show a lower IC50 for the Compound of the Invention. […] Thus, STAT3 activation is involved in nuclear β-catenin regulation. In addition, β-catenin status is a biomarker for predicting responsiveness of CRC patients to the Compound of the Invention.
as §1
CRC patient's archival tumor tissue samples were analyzed through immunohistochemistry (IHC) using labeled antibodies against β-catenin. […] For instance, close to 40% of the patients with high nuclear β-catenin levels before treatment survived longer than 100 weeks whereas none of those with high levels of membranous β-catenin survived beyond 25 weeks. This further confirms that the Compound of the Invention disrupts or somehow modulates the β-catenin function, and that the β-catenin pathway is implicated in colorectal cancers.

`CC(=O)c1cc2c(o1)C(=O)c1ccccc1C2=O` [Compound 1, 2-acetylnaphtho[2,3-b]furan-4,9-dione] was tested, and the “p-STAT3 in the patient tissue after treatment (IHC)” value [1] was “almost no longer any detectable p-STAT3”, the “patients surviving beyond 25 weeks” value (colorectal cancer (CRC); CRC patients (N=13) with high levels of membranous β-catenin) was “none” and the “patients surviving longer than 100 weeks” value (colorectal cancer (CRC); CRC patients (N=13) with high nuclear β-catenin levels before treatment) was roughly 40%. For the same molecule, the “patients surviving longer than 100 weeks” value (colorectal cancer (CRC); CRC patients (N=13) with high p-STAT3 levels before treatment) was 40%, the “patients surviving beyond 100 weeks” value (colorectal cancer (CRC); CRC patients (N=13) with low or no p-STAT3 levels before treatment) was 10% and the “Progression Free Survival (PFS), plasma concentrations above 2.0 uM for greater than 4 hours versus not reaching that exposure” value (colorectal cancer (CRC); CRC patients, FIG. 6A) was “statistically significant difference”. For the same molecule, the “survival, high level of p-STAT3 or NANOG versus low or negative levels” value (colorectal cancer (CRC); CRC patients, phase I archival tissue) was “trend of increased survival” and the “survival HR, nuclear β-Catenin localization versus β-catenin localized to the cell membrane” value (colorectal cancer (CRC); CRC patients, phase I archival tissue, p value <0.001) was 0.043.
